{"source": "patent US7276604B2", "about": "“Crystalline form of the sodium salt of 3-pyridyl-1-hydroxyethylidene-1,1-bisphosphonic acid” (Zentiva A.S., priority 2002, dated 2007)", "format_in_all_cases": "physicochemical", "key": {"[1]": {"experiment": "Drying in vacuum oven and re-uptake of water (stability of water content, Karl Fischer / TGA)", "conditions": "for water content after standing at 100% relative air humidity: within two hours; for hygroscopicity of the dried product: after drying in a vacuum oven", "source_text": "An useful example of such a hydrate is a modification that is characterized by water content 20 up to 23%, specially with 22.8 w. % of water, and sodium content 5.5 up to 7.5%, specially 6.4 up to 6.7 w. %. The specified water content is built in the crystal lattice and the mentioned crystalline modification is thermodynamically stable. By drying with several different drying regimes, the mentioned crystalline modification was dried to the water content corresponding to the pentahemihydrate, the monohydrate and the anhydrous form of sodium 3-pyridyl-1-hydroxyethylidene-1,1-bisphosphonate. When the substance is left standing on the air, the water content stabilizes spontaneously at the original level. Time that it takes for the water content to stabilize depends on relative humidity in the environment in which the dried substance is placed.\n(§1) Water content in the substance was determined using a method according to Karl Fischer and TGA analyses. Sodium content in the substance was determined using acidobasic titration and AAS. Solubility tests were performed according to the Technical Guide European Pharmacopeia.\nThe dried product is hygroscopic. If the substance is left standing at room temperature and usual relative air humidity, the water content returns to the original level within 12 hours.\nIn the pentahydrate dried in a vacuum oven at 105° C., the substance's water content decreases to 3% after six hours. The dried product is hygroscopic. If the substance is left standing at room temperature and usual relative air humidity, the water content increases with a speed of about 0.5% an hour. Within 11 days, the substance's water content returns to about 20 weight %.\n(§2) In trihydrate of the trisodium salt dried in a vacuum oven at 105° C., the substance's water content decreases to 1.1% after 6 hours. The dried product is hygroscopic. If the substance is placed in an environment with 100% relative air humidity, the water content returns to the original level within two hours.\nas §2, with “disodium” for “trisodium”, “approximately 1.7%” for “1.1%”, “the” for “the original”, “level of approximately 5.2%” for “level”"}, "[2]": {"experiment": "Solubility test in water (Technical Guide European Pharmacopeia)", "conditions": "for dissolution observed: 0.1, 0.9 and 2.0 ml added gradually, 25° C. for 15 min; for proportion of the dissolved substance: 3.0 ml added in total to about 100 mg, 25° C., HPLC", "method": "as §1\n(§3) 0.1 ml; 0.9 ml and 2.0 ml of water were gradually added to a 100.25 mg sample of risedronate monosodium salt pentahemihydrate. The suspension was mixed for about 1 min and tempered to 25° C. for 15 min after each addition of water. […] The proportion of the dissolved substance was determined to be 100% using HPLC.\nas §3, with “98.78” for “100.25”, “pentahydrate.” for “pentahemihydrate.”"}, "[3]": {"experiment": "Solubility test in 0.1 M HCl with pH 1.1 (Technical Guide European Pharmacopeia)", "conditions": "for dissolution observed: 0.1 M HCl pH 1.1, 0.1, 0.9, 2.0 and 7.0 ml added gradually, 25° C. for 15 min; for proportion of the dissolved substance: 0.1 M HCl pH 1.1, 10.0 ml added in total to about 100 mg, 25° C., HPLC", "method": "as §1\n(§4) 0.1 ml; 0.9 ml, 2.0 and 7.0 ml of 0.1 M HCl with pH 1.1 were gradually added to a 106.8 mg sample of risedronate monosodium salt pentahemihydrate. The suspension was mixed for 1 min and tempered to 25° C. for 15 min after each addition of acid. […] The proportion of the dissolved substance was determined to be 9.46% using HPLC.\nas §4, with “99.07” for “106.8”, “pentahydrate.” for “pentahemihydrate.”, “31.62%” for “9.46%”"}, "[4]": {"conditions": "after drying at 105° C., 100% relative air humidity"}, "[5]": {"conditions": "vacuum oven at 105° C., after 6 hours"}}, "note": "Counter-ions that a name gives are not always drawn."}
{"smiles": "O=P(O)(O)C(O)(Cc1cccnc1)P(=O)(O)O", "note": "[Risedronate disodium salt monohydrate, disodium 3-pyridyl-1-hydroxyethylidene-1,1-bisphosphonate]", "values": [{"measurement": "water content after standing at 100% relative air humidity", "setting": "[1]; after drying at 105° C., 100% relative air humidity, listed as trihydrate of the disodium salt", "result": "approximately 5.2%"}, {"measurement": "period in which the water content mostly stabilizes at the given value", "setting": "[1]; dried at different conditions, then high relative humidity, 'mostly'", "result": "less than 12 hours"}, {"measurement": "water content after drying", "setting": "[1]; vacuum oven at 105° C., after 6 hours, listed as trihydrate of the disodium salt", "result": "approximately 1.7%"}]}
{"smiles": "O=P(O)(O)C(O)(Cc1cccnc1)P(=O)(O)O", "note": "[risedronate monosodium salt pentahemihydrate] [monosodium 3-pyridyl-1-hydroxyethylidene-1,1-bisphosphonate, reference compound]", "values": [{"measurement": "dissolution observed", "setting": "[2]", "result": "completely dissolved"}, {"measurement": "proportion of the dissolved substance", "setting": "[2]", "result": 100, "unit": "%"}, {"measurement": "dissolution observed", "setting": "[3]", "result": "did not dissolve completely"}, {"measurement": "proportion of the dissolved substance", "setting": "[3]", "result": 9.46, "unit": "%"}]}
{"smiles": "O=P(O)(O)C(O)(Cc1cccnc1)P(=O)(O)O", "note": "[risedronate monosodium salt pentahydrate, monosodium 3-pyridyl-1-hydroxyethylidene-1,1-bisphosphonate]", "values": [{"measurement": "dissolution observed", "setting": "[2]", "result": "completely dissolved"}, {"measurement": "proportion of the dissolved substance", "setting": "[2]", "result": 100, "unit": "%"}, {"measurement": "solubility in 0.1 M hydrochloric acid compared with the pentahemihydrate form", "setting": "[3]; 0.1 M HCl pH 1.1", "result": "significantly more soluble"}, {"measurement": "dissolution observed", "setting": "[3]", "result": "did not dissolve completely"}, {"measurement": "proportion of the dissolved substance", "setting": "[3]", "result": 31.62, "unit": "%"}, {"measurement": "time for water content to return to the original level", "setting": "[1]; after drying at 50° C., room temperature and usual relative air humidity", "result": "≤ 12", "unit": "h"}, {"measurement": "water content after standing at 100% relative air humidity", "setting": "[1]; [4]", "result": 22.7, "unit": "%"}, {"measurement": "speed of water content increase", "setting": "[1]; after drying at 105° C., room temperature and usual relative air humidity", "result": "about 0.5 % an hour"}, {"measurement": "water content after standing", "setting": "[1]; after drying at 105° C., room temperature and usual relative air humidity, within 11 days", "result": "about 20 weight %"}, {"measurement": "hygroscopicity of the dried product", "setting": "[1]", "result": "hygroscopic"}, {"measurement": "stability of the regained water content", "setting": "[1]; usual lab conditions", "result": "stable and does not change"}, {"measurement": "water content after drying", "setting": "[1]; vacuum oven at 50° C., after six hours", "result": 11.5, "unit": "%"}, {"measurement": "water content after drying", "setting": "[1]; [5]", "result": 3, "unit": "%"}]}
{"smiles": "O=P(O)(O)C(O)(Cc1cccnc1)P(=O)(O)O", "note": "[trihydrate of the trisodium salt, trisodium 3-pyridyl-1-hydroxyethylidene-1,1-bisphosphonate]", "values": [{"measurement": "time for water content to return to the original level", "setting": "[1]; [4]", "result": "two"}, {"measurement": "hygroscopicity of the dried product", "setting": "[1]", "result": "hygroscopic"}, {"measurement": "water content after drying", "setting": "[1]; [5]", "result": 1.1, "unit": "%"}]}
